{
  "source": "paper PMC7912614",
  "about": "“(2-Aminobenzothiazole)-Methyl-1,1-Bisphosphonic Acids: Targeting Matrix Metalloproteinase 13 Inhibition to the Bone” (Pharmaceuticals, 2021)",
  "key": {"MMP-8": {"target": "T1, MMP-8 (Homo sapiens, UniProt P22894)", "T1 construct": "Catalytic domains of MMP-2, -8, -9, and -13 were obtained from Enzo Life Sciences; purchased Enzo Life Sciences", "T1 sequence (P22894 100-262 limits assumed)": "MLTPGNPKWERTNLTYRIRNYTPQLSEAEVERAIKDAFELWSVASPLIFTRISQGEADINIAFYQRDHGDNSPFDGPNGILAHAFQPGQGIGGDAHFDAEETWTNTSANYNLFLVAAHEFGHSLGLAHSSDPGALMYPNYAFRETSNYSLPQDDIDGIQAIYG", "test": "fluorometric MMP inhibition assay, MMP-8 catalytic domain", "assay_type": "biochemical", "conditions": "calculated from IC50 values of Table 2", "description": "(§1) Catalytic domains of MMP-2, -8, -9, and -13 were obtained from Enzo Life Sciences. 96-well white microtiter plates (Corning, NBS) were used to carry out the assays (in triplicate). The assay measurements were performed by preparing dilutions to six different concentrations (1 nM–100 µM) of each inhibitor in a fluorometric assay buffer (50 mM Tris·HCl pH 7.5, 200 mM NaCl, 1 mM CaCl2, 1 µM ZnCl2, 0.05% Brij-35, and 1% DMSO). Incubation of the enzyme and inhibitor solutions occurred for 15 min at room temperature; fluorogenic substrate solution (OmniMMP® = Mca-Pro-Leu-Gly-Leu-Dpa-Ala-Arg-NH2, Enzo Life Sciences, 2.5 µM final concentration or OmniMMP®RED = TQ3-GABA-Pro-Cha-Abu-Smc-His-Ala-Dab (6′-TAMRA)-Ala-Lys-NH2, Enzo Life Sciences, and 1 µM final concentration) was subsequently added. The assay was incubated for 2–4 h at 37 °C, after which a Perkin–Elmer Victor V3 plate reader was used to measure fluorescence (λex= 340 nm, λem = 405 nm or λex = 545 nm, λem = 572 nm). Included in the assay were control wells lacking any inhibitor. MMP activity was thus determined and expressed in relative fluorescence units (RFU). Percent inhibition was calculated from control wells and IC50 values were determined using GraphPad Prism 5.0 and are shown as mean ± SEM of at least three independent measurements, which were performed in triplicate."}, "MMP-13": {"target": "T2, MMP-13 (Homo sapiens, UniProt P45452)", "T2 construct": "Catalytic domains of MMP-2, -8, -9, and -13 were obtained from Enzo Life Sciences; purchased Enzo Life Sciences", "test": "fluorometric MMP inhibition assay, MMP-13 catalytic domain", "assay_type": "biochemical", "description": "as §1"}, "MMP-9": {"target": "T3, MMP-9 (Homo sapiens, UniProt P14780)", "T3 construct": "Catalytic domains of MMP-2, -8, -9, and -13 were obtained from Enzo Life Sciences; purchased Enzo Life Sciences", "T3 sequence (P14780 107-444 limits assumed)": "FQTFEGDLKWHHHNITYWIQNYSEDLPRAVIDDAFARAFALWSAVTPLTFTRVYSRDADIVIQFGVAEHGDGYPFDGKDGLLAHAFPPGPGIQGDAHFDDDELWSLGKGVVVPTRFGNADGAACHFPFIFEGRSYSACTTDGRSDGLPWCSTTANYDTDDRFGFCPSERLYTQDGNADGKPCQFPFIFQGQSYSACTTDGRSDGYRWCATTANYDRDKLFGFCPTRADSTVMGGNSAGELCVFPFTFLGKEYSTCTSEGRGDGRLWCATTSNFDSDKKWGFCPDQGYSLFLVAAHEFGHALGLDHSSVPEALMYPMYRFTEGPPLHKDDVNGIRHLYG", "set-up": "method as in PMID 21714093", "conditions": "inhibition values from literature; cited from earlier work"}, "MMP-2": {"target": "T4, MMP-2 (Homo sapiens, UniProt P08253)", "T4 construct": "Catalytic domains of MMP-2, -8, -9, and -13 were obtained from Enzo Life Sciences; purchased Enzo Life Sciences", "T4 sequence (P08253 110-446 limits assumed)": "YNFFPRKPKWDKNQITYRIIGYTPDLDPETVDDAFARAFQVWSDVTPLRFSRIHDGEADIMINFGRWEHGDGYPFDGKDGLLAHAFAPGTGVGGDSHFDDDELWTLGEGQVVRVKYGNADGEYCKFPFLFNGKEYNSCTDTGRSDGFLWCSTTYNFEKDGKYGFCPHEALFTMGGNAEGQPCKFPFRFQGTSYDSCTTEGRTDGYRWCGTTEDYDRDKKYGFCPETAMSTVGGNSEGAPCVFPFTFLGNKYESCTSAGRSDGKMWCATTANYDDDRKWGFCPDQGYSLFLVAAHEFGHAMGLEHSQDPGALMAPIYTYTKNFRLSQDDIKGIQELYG", "test": "fluorometric MMP inhibition assay, MMP-2 catalytic domain", "assay_type": "biochemical", "conditions": "calculated from IC50 values of Table 2", "description": "as §1"}, "[1]": {"conditions": "ratio of IC50 values of Table 2"}},
  "data": [
    {"smiles": "O=P(O)(O)C(NS(=O)(=O)c1ccc(-c2ccccc2)cc1)P(=O)(O)O", "note": "[ML115, reference compound]", "values": [
      {"measurement": "Ligand Efficiency MMP-8", "setting": "MMP-8", "result": 0.35},
      {"measurement": "Ligand Efficiency MMP-13", "setting": "MMP-13; calculated from IC50 values of Table 2", "result": 0.34},
      {"measurement": "IC50", "setting": "MMP-13; catalytic domain, fluorometric assay, mean ± SEM of at least 3 experiments", "result": "600 ± 300", "unit": "nM"},
      {"measurement": "Selectivity MMP-2/13", "setting": "MMP-13; [1]", "result": 0.23},
      {"measurement": "Selectivity MMP-8/13", "setting": "MMP-13; [1]", "result": 0.67},
      {"measurement": "Selectivity MMP-9/13", "setting": "MMP-13; [1]", "result": ">166.67"},
      {"measurement": "IC50", "setting": "MMP-9", "result": "> 100000", "unit": "nM"},
      {"measurement": "Ligand Efficiency MMP-2", "setting": "MMP-2", "result": 0.38}
    ]}
  ]
}
